Read-outs that look alike come from different tables or passages of the source.
Molecular target: T1, SIRT1 (Homo sapiens, UniProt Q96EB6)
T1 sequence (Q96EB6 1-747): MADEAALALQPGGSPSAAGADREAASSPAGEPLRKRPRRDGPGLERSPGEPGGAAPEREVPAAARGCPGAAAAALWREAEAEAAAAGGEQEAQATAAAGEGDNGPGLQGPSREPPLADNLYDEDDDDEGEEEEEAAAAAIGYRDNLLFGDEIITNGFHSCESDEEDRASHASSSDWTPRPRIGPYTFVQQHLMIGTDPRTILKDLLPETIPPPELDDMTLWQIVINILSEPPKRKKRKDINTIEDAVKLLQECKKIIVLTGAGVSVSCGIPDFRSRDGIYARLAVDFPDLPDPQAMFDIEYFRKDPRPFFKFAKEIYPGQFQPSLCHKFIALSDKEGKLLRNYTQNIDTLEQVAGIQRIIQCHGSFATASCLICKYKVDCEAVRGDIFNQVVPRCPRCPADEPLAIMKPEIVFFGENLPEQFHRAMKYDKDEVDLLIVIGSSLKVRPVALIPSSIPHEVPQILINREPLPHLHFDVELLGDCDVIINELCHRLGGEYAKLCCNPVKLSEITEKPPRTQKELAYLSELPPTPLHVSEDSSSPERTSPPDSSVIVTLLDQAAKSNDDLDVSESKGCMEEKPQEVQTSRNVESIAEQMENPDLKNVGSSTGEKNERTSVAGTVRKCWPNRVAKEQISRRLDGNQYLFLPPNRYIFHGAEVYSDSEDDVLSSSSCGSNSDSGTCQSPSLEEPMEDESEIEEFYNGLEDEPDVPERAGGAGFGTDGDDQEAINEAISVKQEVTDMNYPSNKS
Test: Mass spectrometry based SIRT1 deacetylase activation assay (acetylated p53-derived peptide substrate)
Format: biochemical

[1] = 0.5 μM peptide substrate, 120 μM βNAD+, 10 nM SIRT1, 25 min at 25° C.
[2] = 0.5 μM peptide substrate, 120 μM βNAD+, 10 nM SIRT1, 25 min at 25° C., read-out: EC1.5
[3] = 0.5 μM peptide substrate, 120 μM βNAD+, 10 nM SIRT1, 25 minutes at 25° C.

Row | Compound | Fold Act. (percent maximum fold activation) [1] | EC1.5 [2] | EC1.5 | Fold Act. (percent maximum fold activation) | EC1.5 [3] | Fold Act. (percent maximum fold activation) [3]
1 | C[C@@H]1CN(c2cccc(-c3nc4c(C(=O)Nc5nccs5)cccc4[nH]3)c2)C[C@H](C)O1 [Compound 576, 2-(3-(2,6-dimethylmorpholino)phenyl)-N-(thiazol-2-yl)-1H-benzo[d]imidazole-4-carboxamide] | A (Fold activation >200%) | < 1000 nM | – | – | – | –
2 | Cc1cnc(NC(=O)c2cccc3[nH]c(-c4ccc5c(c4)NC(=O)CO5)nc23)s1 [Compound 534] | A (Fold activation >200%) | < 1000 nM | – | – | – | –
3 | Cc1cc(C)nc(NC(=O)c2cccc3[nH]c(-c4ccc(F)cc4C(F)(F)F)nc23)c1 [Compound 359] | – | – | A (EC1.5<1.0 uM) | A (Fold activation >200%) | – | –
4 | C[C@@H]1CN(c2ccc(-c3nc4c(C(=O)Nc5ccccn5)cccc4[nH]3)c(C(F)(F)F)c2)C[C@H](C)O1 [Compound 571] | A (Fold activation >200%) | < 1000 nM | – | – | – | –
5 | O=C(Nc1cccnn1)c1cccc2[nH]c(-c3ccccc3C(F)(F)F)nc12 [Compound 451] | A (Fold activation >200%) | < 1000 nM | – | – | – | –
6 | CS(=O)(=O)c1ccccc1-c1nc2c(C(=O)Nc3ccccn3)cccc2[nH]1 [Compound 519] | A (Fold activation >200%) | < 1000 nM | – | – | – | –
7 | O=C(Nc1ccccn1)c1cccc2[nH]c(-c3ccc(N4CC[C@H](F)C4)cc3C(F)F)nc12 [Compound 733] | – | – | – | – | A (EC1.5<1.0 uM) | A (Fold activation >200%)
8 | O=C(Nc1cccc(OC[C@H](O)CO)c1)c1cncc2[nH]c(-c3ccc(Cl)cc3C(F)F)nc12 [Compound 715] | – | – | – | – | A (EC1.5<1.0 uM) | A (Fold activation >200%)
9 | O=C(Nc1ccccn1)c1cccc2[nH]c(-c3ccccc3OCCN3CCC(F)(F)CC3)nc12 [Compound 613] | – | – | – | – | B (EC1.5 1-25 uM) | B (Fold Activation <200%)
10 | O=C(Nc1cccnc1)c1cccc2[nH]c(-c3cccc(CN4CCCC4)c3)nc12 [Compound 352] | – | – | B (EC1.5 1-25 uM) | A (Fold activation >200%) | – | –
11 | Cc1cc(Cl)cc(-c2nc3c(C(=O)Nc4nccs4)cccc3[nH]2)c1OCCN1CCOCC1 [Compound 505] | A (Fold activation >200%) | 1000 to 25000 nM | – | – | – | –
12 | O=C(Nc1ccccn1)c1cccc2[nH]c(-c3ccc(N4CCCC4)cc3C(F)(F)F)nc12 [Compound 605] | – | – | – | – | B (EC1.5 1-25 uM) | A (Fold activation >200%)
13 | O=C(Nc1cccnn1)c1cncc2[nH]c(-c3cc(F)ccc3C(F)(F)F)nc12 [Compound 656] | – | – | – | – | A (EC1.5<1.0 uM) | A (Fold activation >200%)
14 | O=C(NC1CCOCC1)c1cccc2[nH]c(-c3ccc(Cl)cc3C(F)(F)F)nc12 [Compound 434] | B (Fold Activation <200%) | 1000 to 25000 nM | – | – | – | –
15 | O=C(NC1CN2CCC1CC2)c1cccc2[nH]c(-c3cccc(C(F)(F)F)c3)nc12 (stereo not drawn) [Compound 272] | – | – | B (EC1.5 1-25 uM) | A (Fold activation >200%) | – | –
16 | CS(=O)(=O)c1cccc(-c2nc3c(C(=O)Nc4ccccn4)cccc3[nH]2)c1 [Compound 403] | A (Fold activation >200%) | 1000 to 25000 nM | – | – | – | –
17 | O=C(Nc1cccc(CN2CCOCC2)n1)c1cccc2[nH]c(-c3ccc(F)cc3C(F)F)nc12 [Compound 818] | – | – | – | – | A (EC1.5<1.0 uM) | A (Fold activation >200%)
18 | Cc1cnc(NC(=O)c2cccc3nc(-c4ccc(N5CCCC5)cc4C(F)F)[nH]c23)s1 [Compound 765] | – | – | – | – | A (EC1.5<1.0 uM) | A (Fold activation >200%)
19 | O=C(Nc1cccc2[nH]c(-c3ccc(Cl)cc3C(F)(F)F)nc12)c1ccccn1 [Compound 417] | A (Fold activation >200%) | 1000 to 25000 nM | – | – | – | –
20 | O=C(Nc1cccnc1)c1cccc2[nH]c(-c3ccc(-c4nnn[nH]4)cc3)nc12 [Compound 349] | – | – | A (EC1.5<1.0 uM) | B (Fold Activation <200%) | – | –
21 | CS(=O)(=O)c1cc(Cl)ccc1-c1nc2c(C(=O)Nc3cccnc3)cccc2[nH]1 [Compound 521] | A (Fold activation >200%) | 1000 to 25000 nM | – | – | – | –
22 | Cc1cc(C)nc(NC(=O)c2cccc3[nH]c(-c4ccc(Cl)cc4C(F)(F)F)nc23)c1 [Compound 394] | – | – | A (EC1.5<1.0 uM) | A (Fold activation >200%) | – | –
23 | O=C(Nc1nccs1)c1cncc2nc(-c3ccc(OC[C@H](O)CO)cc3C(F)F)[nH]c12 [Compound 808] | – | – | – | – | A (EC1.5<1.0 uM) | A (Fold activation >200%)
24 | O=C(Nc1nc(-c2ccccc2)cs1)c1cccc2[nH]c(-c3cccc(C(F)(F)F)c3)nc12 [Compound 283] | – | – | B (EC1.5 1-25 uM) | A (Fold activation >200%) | – | –
25 | CC(C)(C)c1ccc(OCCN2CCOCC2)c(-c2nc3c(C(=O)Nc4nccs4)cccc3[nH]2)c1 [Compound 547] | B (Fold Activation <200%) | 1000 to 25000 nM | – | – | – | –
26 | O=C(NC1CCOC1=O)c1cccc2[nH]c(-c3ccnn3-c3ccccc3)nc12 (stereo not drawn) [Compound 443] | B (Fold Activation <200%) | > 25000 nM | – | – | – | –
27 | O=C(Nc1ccccn1)c1cc(N2CCCC2)cc2[nH]c(-c3ccccc3C(F)F)nc12 [Compound 791] | – | – | – | – | A (EC1.5<1.0 uM) | A (Fold activation >200%)
28 | Cc1cnc(NC(=O)c2cccc3[nH]c(-c4cccc(C(F)(F)F)c4)nc23)s1 [Compound 260] | – | – | B (EC1.5 1-25 uM) | B (Fold Activation <200%) | – | –

More lines, now with the values ahead:

Row | Fold Act. (percent maximum fold activation) [1] | EC1.5 [2] | EC1.5 | Fold Act. (percent maximum fold activation) | EC1.5 [3] | Fold Act. (percent maximum fold activation) [3] | Compound
29 | A (Fold activation >200%) | < 1000 nM | – | – | – | – | O=C(Nc1nccs1)c1cccc2[nH]c(-c3ccccc3OC3CCNCC3)nc12 [Compound 428, 2-(2-(piperidin-4-yloxy)phenyl)-N-(thiazol-2-yl)-1H-benzo[d]imidazole-4-carboxamide]
30 | – | – | B (EC1.5 1-25 uM) | A (Fold activation >200%) | – | – | O=C(Nc1nccs1)c1cccc2[nH]c(-c3ccccc3CN3CCOCC3)nc12 [Compound 267]
31 | – | – | – | – | A (EC1.5<1.0 uM) | A (Fold activation >200%) | O=C(Nc1nccs1)c1cccc2[nH]c(-c3ccc(OC[C@@H](O)CO)cc3C(F)(F)F)nc12 [Compound 745]
32 | – | – | – | – | A (EC1.5<1.0 uM) | A (Fold activation >200%) | O=C(Nc1ccc(OC[C@@H](O)CO)cc1)c1cccc2[nH]c(-c3cccnc3)nc12 [Compound 753]
33 | – | – | – | – | A (EC1.5<1.0 uM) | A (Fold activation >200%) | O=C(Nc1cccc(OCC(O)CO)c1)c1cccc2[nH]c(-c3cc(F)ccc3C(F)(F)F)nc12 (stereo not drawn) [Compound 741]
34 | – | – | C (EC1.5 >25 uM) | B (Fold Activation <200%) | – | – | O=C(Nc1nccs1)c1cccc2[nH]c(-c3cccc(-c4ccccc4)c3)nc12 [Compound 222]
35 | – | – | A (EC1.5<1.0 uM) | A (Fold activation >200%) | – | – | O=C(Nc1nccs1)c1cccc2[nH]c(-c3cccc(N4CCOCC4)c3)nc12 [Compound 226]
36 | A (Fold activation >200%) | 1000 to 25000 nM | – | – | – | – | CC(C)N1CCN(CCOc2ccccc2-c2nc3c(C(=O)Nc4nccs4)cccc3[nH]2)CC1 [Compound 485]
37 | – | – | B (EC1.5 1-25 uM) | A (Fold activation >200%) | – | – | O=C(Nc1nccs1)c1cccc2[nH]c(-c3ccccc3OCC(O)CO)nc12 (stereo not drawn) [Compound 326]
38 | – | – | B (EC1.5 1-25 uM) | A (Fold activation >200%) | – | – | O=C(Nc1nccs1)c1cccc2[nH]c(-c3cccc(N4CCCCC4)c3)nc12 [Compound 225]
39 | – | – | B (EC1.5 1-25 uM) | A (Fold activation >200%) | – | – | Cn1ccc(-c2nc3c(C(=O)Nc4nccs4)cccc3[nH]2)n1 [Compound 303]
40 | – | – | – | – | B (EC1.5 1-25 uM) | A (Fold activation >200%) | O=C(Nc1ccccc1OCC(O)CO)c1cccc2[nH]c(-c3ccccc3C(F)(F)F)nc12 (stereo not drawn) [Compound 729]
41 | – | – | – | – | A (EC1.5<1.0 uM) | A (Fold activation >200%) | O=C(Nc1cccc(OC[C@H](O)CO)c1)c1cccc2[nH]c(-c3cc(F)ccc3C(F)F)nc12 [Compound 719]
42 | – | – | C (EC1.5 >25 uM) | B (Fold Activation <200%) | – | – | O=C(Nc1nccs1)c1cccc2[nH]c(-c3ccc(F)c(F)c3)nc12 [Compound 214]
